Source: patent US20050119301A1, “Treatment of restenosis” (priority 2001, published 2005)
Entries after “also recorded” stand apart in the source; their conditions may differ.

Columns and labels:
[1] = tested on: Vascular smooth muscle cells (VSMC) derived from internal mammary artery (IMA); assay: Serum-induced VSMC proliferation, [3H]-thymidine incorporation; type: cell-based, human; conditions: for proliferation of IMA-derived VSMC (in words) / proliferation of IMA-derived VSMC at high concentrations (in words): 2.5% FBS; for proliferation of IMA-derived VSMC (in words): 0.01-100 mM tested, Cpd. 7 effect from 0.1 mM up to 1 mM
Protocol: Vascular smooth muscle cells (VSMC) derived from internal mammary artery (IMA) were cultured in 10% FBS-DMEM. Cells were grown to confluence in LG (glucose 5 mM)-medium then trypsinized, diluted with 10% FBS-LG medium to about 10,000 cells/ml and 1 ml of suspension was) aliquoted into four 24-well plates. Cells were then allowed to grow for 2 days to visual confluence. LG serum-free media was changed for 48 h to synchronize most cells at Go/G1.
After 24 h of serum-free medium, cells were treated with the compounds (Cpd. 5, Cpd. 7, Cpd. 8 or Cpd. 12) for 4 h and FBS was added (final concentration 2.5%) over night (18-20 hours). 4 wells were allocated for each treatment:
Cell proliferation was induced by a variety of growth factors such as serum and platelet derived growth factor (PDGF).
Media was changed to LG serum-free DMEM and cells were treated with [^3H]-thymidine at 1 μCi/well for 3 hours. Cells were washed twice with ice cold Dulbecco's PBS. Next, ice cold 0.2M HClO4 (1 ml/well) was added and cells were incubated on ice for 30 min. Cells were then washed three times with 0.5 ml/well of ice cold 0.2M HClO4. Media (0.5 ml/well of 0.2 M NaOH) was replaced and cells were incubate at 37° C. After 1 hour, cells were treated with acetic acid (6%, 0.2 ml/well), transferred to scintillation vials with 3 ml scintillation liquid (Instagel) and counted for 2 min per vial.

[2] = tested on: LDL; assay: LDL antioxidation test (CuCl2-initiated LDL oxidation, lag time); type: biochemical, human; conditions: Table 3, 10 μM; for Lag Time: control 20 min
[3] = tested on: rat thoracic aorta; assay: Contractile curves to noradrenaline in rat isolated aortic rings (Protocol 1); conditions: for dose dependency of the antagonising action on noradrenaline contraction: 0.1 and 1 μg/ml; for antagonising the contractile response to noradrenaline (in words): order of potency at 1 μg/ml; for y max, Noradrenaline + Test compound (B): mean ± SEM; for y max Difference (A − B): noradrenaline alone minus noradrenaline + compound
Protocol: Male Sprague-Dawley rats (250±50 g) were gassed with 80% CO2 and 20% O2 until killed. The thoracic aorta was excised and quickly placed in ice-cold Krebs modified solution composed of NaCl […], […] 4.7 mM, MgSO4 7H2O 1.17 mM, NaHCO3 25 mM, KH2PO4 1.18 mM, CaCl2 2.5 mM, glucose 11 mM and EDTA 0.03 mM. It was then trimmed of fat and connective tissue and cut into 2-3 mm wide rings. Each ring was mounted on two parallel stainless steel hooks in a single water-jacketed 3 ml organ bath containing modified Krebs solution maintained at 37° C. and bubbled with 95% O2 plus 5% CO2. The lower hook was attached to a movable support leg and the upper hook to an FTO3 force transducer (Grass Scientific Instruments, Mitutoyo, Japan) for isometric recordings. Changes in force were amplified (Quadbridge amplifier, Scientific Concepts Inc., Victoria, Australia) and recorded on a MacLab 8E data acquisition system (Adinstruments Pty Ltd., NSW, Australia) linked to an Apple computer (Apple Computer Inc, Cupertina, Calif.). Rings were set at an initial tension of 2 g and allowed to equilibrate for 30 minutes after which time they were re-set to 2 g tension before the commencement of each experimental protocol.
Full concentration-contractile curves were obtained to noradrenaline (0.1 nM-[…]) in the absence and presence of β-estradiol (1 μg/ml); Cpd. 5 (0.1 and 1 μg/ml); Cpd. 7 (0.1 and 1 μg/ml); Cpd. 8 (0.1 and 1 μg/ml) and Cpd. 12 (1 μg/ml) and the vehicle equi-volume DMSO. Only one compound at any one concentration was tested on any one ring from any one animal.
Contractile responses are expressed in g tension (mean+standard error of the mean). Dilatory responses are expressed as a percentage of the contractile force generated by the pre-constricting agent used. Individual concentration-response curves for noradrenaline and acetylcholine±the interventions used were fitted to a logistic equation of the form […] where E is the response, M is the maximum response and K is the concentration eliciting 50% of the maximum response (ie neg log EC50).

[4] = tested on: LDL receptor; assay: LDL receptor expression on HepG2 cells, [125I]-LDL specific binding; type: cell-based, human; conditions: for LDL receptor expression, Experiment 3 / LDL receptor expression, Experiment 2 / LDL receptor expression, Experiment 1: 48 hours; for LDL receptor expression, Experiment 3: control 130 ± 18; for LDL receptor expression, Experiment 2: control 261 ± 57; for LDL receptor expression, Experiment 1: control 283 ± 32; for effect on LDL binding / LDL receptor expression over control (in words): HepG2
Protocol: Confluent human hepatoma (HepG2) cells were preincubated in the absence or presence of the test compound (Cpd. 7, Cpd. 8 and Cpd. 12 at final concentration of 50 nM, 500 nM and […]) for 48 hours, in complete DMEM medium containing 10% fetal bovine serum (FBS). Serum deprivation (i.e. 0.5% FBS) was used as a positive control to induce LDL receptor expression. Following preincubation, cells were washed before […] of [^125I]-LDL (specific activity 6.5-29.5 cpm/fmol) was added and the cells incubated at 4° C. for another 4 hours in the absence (for total binding) and presence of […] unlabelled LDL (to assess non-specific binding). Cells were then washed, lysed (0.1 M NaOH), and the radioactivity and protein content (BCA assay) of the lysate determined. The number of LDL receptors was determined from the specific binding (total binding minus non-specific binding), assuming one molecule of LDL binds per LDL receptor. Three independent experiments (each in triplicate) were performed with different batches of cells and [^125I]-LDL.
To determine the concentration of LDL needed to reach binding saturation, confluent HepG2 cells were incubated in 12-well plates with increasing concentrations of [^125I]-LDL in the presence of excess (i.e., […]) unlabelled LDL. […] Using this concentration, the time required to reach saturation binding at 4° C. was determined to be approximately 4 hours. These established optimal conditions were used for all subsequent binding assays.

Structure (SMILES)	proliferation of IMA-derived VSMC (in words) [1]	% Increase in Time [2] [%]	Lag Time [2] [min]	dose dependency of the antagonising action on noradrenaline contraction [3]	antagonising the contractile response to noradrenaline (in words) [3]	y max, Noradrenaline + Test compound (B) ([3]; test compound 0.1 μg/ml) [g tension]	y max Difference (A − B) ([3]; test compound 0.1 μg/ml) [g tension]	y max, Noradrenaline + Test compound (B) ([3]; test compound 1 μg/ml) [g tension]	y max Difference (A − B) ([3]; test compound 1 μg/ml) [g tension]	proliferation of IMA-derived VSMC at high concentrations (in words) ([1]; 10 mM and 100 mM)	LDL receptor expression, Experiment 3 ([4]; 50 nM)	LDL receptor expression, Experiment 2 ([4]; 50 nM)	LDL receptor expression, Experiment 1 ([4]; 50 nM, mean ± SD, n = 3)	LDL receptor expression, Experiment 3 ([4]; 500 nM)	LDL receptor expression, Experiment 2 ([4]; 500 nM)	LDL receptor expression, Experiment 1 ([4]; 500 nM)	effect on LDL binding / LDL receptor expression over control (in words) [4]	cell damage ([1]; 10 mM and 100 mM)
O=C1c2ccc(O)cc2OCC1c1ccc(O)cc1 (centres unmarked) [Cpd. 5]	relatively inactive	0	20	dose dependent	active but less potent than β-estradiol; also recorded: equipotent but less potent than Cpd. 12	1.50 ± 0.32	0.81 ± 0.25	1.13 ± 0.20	1.02 ± 0.24									
Oc1ccc(C2COc3cc(O)ccc3C2O)cc1 (centres unmarked) [Cpd. 7]	significantly inhibited proliferation	100	50	dose dependent	active but less potent than β-estradiol; also recorded: equipotent but less potent than Cpd. 12	1.41 ± 0.13	0.25 ± 0.25	1.26 ± 0.34	1.38 ± 0.27	relative increase in proliferation	159 ± 30 fmol LDL receptors per mg cell protein	239 ± 49 fmol LDL receptors per mg cell protein	299 ± 45 fmol LDL receptors per mg cell protein	171 ± 14 fmol LDL receptors per mg cell protein	199 ± 58 fmol LDL receptors per mg cell protein	281 ± 22 fmol LDL receptors per mg cell protein	increased LDL binding	
Oc1ccc(C2COc3cc(O)ccc3C2O)cc1 (centres unmarked) [Cpd. 8]		>600	>140	dose dependent	active but less potent than β-estradiol; also recorded: the least potent	1.34 ± 1.20	0.56 ± 0.15	0.86 ± 0.31	0.69 ± 0.28	caused a significant increase in proliferation	152 ± 24 fmol LDL receptors per mg cell protein	291 ± 66 fmol LDL receptors per mg cell protein	273 ± 22 fmol LDL receptors per mg cell protein	193 ± 18 fmol LDL receptors per mg cell protein	291 ± 52 fmol LDL receptors per mg cell protein	312 ± 42 fmol LDL receptors per mg cell protein	increased LDL binding	
Oc1ccc(C2=Cc3ccc(O)cc3OC2)cc1 [Cpd. 12]	did not appear to inhibit cellular proliferation	>600	>140		comparable to β-estradiol; also recorded: most effective and comparable to 170-estradiol			0.80 ± 0.36	2.27 ± 0.68		156 ± 24 fmol LDL receptors per mg cell protein	134 ± 52 fmol LDL receptors per mg cell protein	319 ± 43 fmol LDL receptors per mg cell protein	136 ± 23 fmol LDL receptors per mg cell protein	233 ± 40 fmol LDL receptors per mg cell protein	311 ± 35 fmol LDL receptors per mg cell protein	without consistent effect	caused significant cell damage
